Experimental data as given in paper PMC10504751, “Chalcone/1,3,4-Oxadiazole/Benzimidazole hybrids as novel anti-proliferative agents inducing apoptosis and inhibiting EGFR & BRAFV^600E” (BMC Chemistry, 2023).
Values joined by “and” are separate entries in the source; they are usually repeats but may differ in a detail not shown here. Identical values can stand only once.

What was measured:
[1] = target: BRAF^V600E; test: biochemical
Protocol: To further denature the protein, heat (70° C) was applied for 5 min. […] 10 µL of each reaction was loaded into the precast plates and electrophoresis was allowed to proceed. After completion of electrophoresis, the front part of the precast gel plate (holding hot ATP) was cut and afterwards cast-off. The dried gel was developed using a phosphor screen.

[2] = target: T1, EGFR (Homo sapiens, UniProt P00533); test: EGFR-TK inhibitory assay; type: biochemical; details: for IC50: read-out: EGFR Inhibition IC50 ± SEM
T1 construct: EGFR cytoplasmic domain (EGFR-CD, amino acids 645–1186); His6 (N); made in house; host or cells: Sf-9 insect cells (baculovirus; pBlueBacHis2B / pFASTBacHTc)
T1 sequence (P00533 669-1210): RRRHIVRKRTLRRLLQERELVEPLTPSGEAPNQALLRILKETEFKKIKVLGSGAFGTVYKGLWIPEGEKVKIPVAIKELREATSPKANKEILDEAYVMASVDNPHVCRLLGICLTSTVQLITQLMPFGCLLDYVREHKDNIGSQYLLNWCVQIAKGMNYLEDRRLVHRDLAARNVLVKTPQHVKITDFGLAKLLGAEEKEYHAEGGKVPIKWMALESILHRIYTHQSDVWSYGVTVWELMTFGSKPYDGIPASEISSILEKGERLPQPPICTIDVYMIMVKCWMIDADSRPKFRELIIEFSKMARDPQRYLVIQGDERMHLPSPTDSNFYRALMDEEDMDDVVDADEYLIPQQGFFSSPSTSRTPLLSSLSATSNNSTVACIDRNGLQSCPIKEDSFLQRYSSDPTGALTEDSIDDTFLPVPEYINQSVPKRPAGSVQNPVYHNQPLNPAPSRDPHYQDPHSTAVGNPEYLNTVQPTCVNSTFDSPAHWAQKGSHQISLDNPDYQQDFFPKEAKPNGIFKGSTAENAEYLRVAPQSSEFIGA

[3] = system: RPMI-8226; test: NCI one-dose SRB anti-proliferative screen; type: cell-based; details: Homo sapiens; RPMI-8226, Leukemia; NCI one dose; read-out: Cell growth inhibition %
Summary of the method: (§1)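 Compounds were tested at a single 10 µM concentration within a 60-cell-line panel covering nine tumour subpanels. Growth was read colorimetrically by sulforhodamine B staining.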

[4] = system: SF-295; test: NCI one-dose SRB anti-proliferative screen; type: cell-based; details: Homo sapiens; SF-295, CNS Cancer; NCI one dose; read-out: Cell growth inhibition %
Summary of the method: as §1

[5] = system: SNB-75; test: NCI one-dose SRB anti-proliferative screen; type: cell-based; details: Homo sapiens; SNB-75, CNS Cancer; NCI one dose; read-out: Cell growth inhibition %
Summary of the method: as §1

[6] = system: MDA-MB-231/ATCC; test: NCI one-dose SRB anti-proliferative screen; type: cell-based; details: Homo sapiens; MDA-MB-231/ATCC, Breast cancer; NCI one dose; read-out: Cell growth inhibition %
Summary of the method: as §1

[7] = system: MDA-MB-435; test: NCI one-dose SRB anti-proliferative screen; type: cell-based; details: Homo sapiens; MDA-MB-435, Melanoma; NCI one dose; read-out: Cell growth inhibition %
Summary of the method: as §1

[8] = system: UO-31; test: NCI one-dose SRB anti-proliferative screen; type: cell-based; details: Homo sapiens; UO-31, Renal cancer; NCI one dose; read-out: Cell growth inhibition %
Summary of the method: as §1

[9] = system: HOP-62; test: NCI one-dose SRB anti-proliferative screen; type: cell-based; details: Homo sapiens; HOP-62, Non-Small Cell Lung Cancer; NCI one dose; read-out: Cell growth inhibition %
Summary of the method: as §1

[10] = system: SK-MEL-5; test: NCI one-dose SRB anti-proliferative screen; type: cell-based; details: Homo sapiens; SK-MEL-5, Melanoma; NCI one dose; read-out: Cell growth inhibition %
Summary of the method: as §1

[11] = system: MALME-3M; test: NCI one-dose SRB anti-proliferative screen; type: cell-based; details: Homo sapiens; MALME-3M, Melanoma; NCI one dose; read-out: Cell growth inhibition %
Summary of the method: as §1

[12] = system: SR; test: NCI one-dose SRB anti-proliferative screen; type: cell-based; details: Homo sapiens; SR, Leukemia; NCI one dose; read-out: Cell growth inhibition %
Summary of the method: as §1

[13] = system: CAKI-1; test: NCI one-dose SRB anti-proliferative screen; type: cell-based; details: Homo sapiens; CAKI-1, Renal cancer; NCI one dose; read-out: Cell growth inhibition %
Summary of the method: as §1

[14] = system: M14; test: NCI one-dose SRB anti-proliferative screen; type: cell-based; details: Homo sapiens; M14, Melanoma; NCI one dose; read-out: Cell growth inhibition %
Summary of the method: as §1

[15] = system: HOP-92; test: NCI one-dose SRB anti-proliferative screen; type: cell-based; details: Homo sapiens; HOP-92, Non-Small Cell Lung Cancer; NCI one dose; read-out: Cell growth inhibition %
Summary of the method: as §1

[16] = system: SNB-19; test: NCI one-dose SRB anti-proliferative screen; type: cell-based; details: Homo sapiens; SNB-19, CNS Cancer; NCI one dose; read-out: Cell growth inhibition %
Summary of the method: as §1

[17] = system: SK-MEL-28; test: NCI one-dose SRB anti-proliferative screen; type: cell-based; details: Homo sapiens; SK-MEL-28, Melanoma; NCI one dose; read-out: Cell growth inhibition %
Summary of the method: as §1

[18] = system: COLO 205; test: NCI one-dose SRB anti-proliferative screen; type: cell-based; details: Homo sapiens; COLO 205, Colon cancer; NCI one dose; read-out: Cell growth inhibition %
Summary of the method: as §1

[19] = system: SN12C; test: NCI one-dose SRB anti-proliferative screen; type: cell-based; details: Homo sapiens, SN 12C, Renal cancer, NCI one dose, read-out: Cell growth inhibition %
Summary of the method: as §1

[20] = system: NCI-H460; test: NCI one-dose SRB anti-proliferative screen; type: cell-based; details: Homo sapiens; NCI-H460, Non-Small Cell Lung Cancer; NCI one dose; read-out: Cell growth inhibition %
Summary of the method: as §1

[21] = system: SK-MEL-2; test: NCI one-dose SRB anti-proliferative screen; type: cell-based; details: Homo sapiens; SK-MEL-2, Melanoma; NCI one dose; read-out: Cell growth inhibition %
Summary of the method: as §1

[22] = system: BT-549; test: NCI one-dose SRB anti-proliferative screen; type: cell-based; details: Homo sapiens; BT-549, Breast cancer; NCI one dose; read-out: Cell growth inhibition %
Summary of the method: as §1

[23] = system: NCI/ADR-RES; test: NCI one-dose SRB anti-proliferative screen; type: cell-based; details: Homo sapiens; NCI/ADR-RES, Ovarian Cancer; NCI one dose; read-out: Cell growth inhibition %
Summary of the method: as §1

[24] = system: Caspase-9 in MCF-7 breast cancer cells; test: Caspase-9 assay; type: cell-based, human; details: for Caspase-9 Fold change: MCF-7, vs untreated control; for Caspase-9 Conc: MCF-7 breast cancer cells
[25] = system: Bcl-2 in MCF-7; test: Bcl-2 inhibition assay; details: for Bcl-2 Conc: MCF-7; for Bcl-2 Fold reduction: MCF-7, vs untreated control
Protocol: All reagents were thoroughly mixed without foaming before use. The microwells were washed twice with approximately 300 µL Wash Buffer per well with the thorough aspiration of microwell contents between washes. Care was taken not to scratch the surface of the microwells. After the last wash, the wells were emptied and microwell strips were tapped on an absorbent pad or paper towel to remove excess Wash Buffer. The microwell strips were used immediately after washing or placed upside down on a wet absorbent paper for not longer than 15 min. Wells were not allowed to dry. A total of 100 µL of Sample Diluent was added in duplicate to all standard wells and the blank wells. Standard (1:2 dilution) in duplicate was prepared ranging from 32 to 0.5 ng/mL. A total of 100 µL of Sample Diluent, in duplicate, was added to the blank wells. A total of 80 µL of Sample Diluent, in duplicate, was added to the sample wells. A total of 20 µL of each sample, in duplicate, was added to the designated wells. A total of 50 µL of diluted biotin was added, conjugated to all wells, including the blank wells. It was covered with a plate cover and incubated at room temperature on a microplate shaker at 100 rpm for 2 h. The plate cover was removed and the wells were emptied. Microwell strips were washed times as described in Step 2. A total of 100 µL of diluted Streptavidin-HRP was added to all wells, including the blank wells. It was covered with a plate cover and incubated at room temperature on a microplate shaker at 100 rpm for 1 h. The plate cover was removed and the wells were emptied. Microwell strips were washed three times, as described in Step 2. A total of 100 µL of mixed TMB Substrate Solution was pipetted into all wells, including the blanks. The microwell strips were incubated at room temperature (18 ◦C to 25 ◦C) for about 15 min, on a rotator set at 100 rpm. Direct exposure to intense light was avoided. The point at which the substrate reaction is stopped was determined by the ELISA reader. Many ELISA readers record absorbance only up to 2.0 O.D. Therefore, the color development within individual microwells was watched by the person running the assay, and the substrate reaction was stopped before positive wells were no longer properly detectable. The enzyme reaction was stopped by quickly pipetting 100 µL of Stop Solution into each well, including the blank wells. It was important that the Stop Solution was spread quickly and uniformly throughout the microwells to inactivate the enzyme completely. Results were read immediately after the Stop Solution was added or within one hour if the microwell strips were stored at 2–8 ◦C in the dark. The absorbance of each microwell was read on a spectrophotometer using 450 nm as the primary wavelength.

[26] = system: Caspase-8 in MCF-7 breast cancer cells; test: Caspase-8 assay; type: cell-based, human; details: for Caspase-8 Fold change: MCF-7, vs untreated control; for Caspase-8 Conc: MCF-7 breast cancer cells

Sequence of BRAF^V600E (P28028 whole entry V585E): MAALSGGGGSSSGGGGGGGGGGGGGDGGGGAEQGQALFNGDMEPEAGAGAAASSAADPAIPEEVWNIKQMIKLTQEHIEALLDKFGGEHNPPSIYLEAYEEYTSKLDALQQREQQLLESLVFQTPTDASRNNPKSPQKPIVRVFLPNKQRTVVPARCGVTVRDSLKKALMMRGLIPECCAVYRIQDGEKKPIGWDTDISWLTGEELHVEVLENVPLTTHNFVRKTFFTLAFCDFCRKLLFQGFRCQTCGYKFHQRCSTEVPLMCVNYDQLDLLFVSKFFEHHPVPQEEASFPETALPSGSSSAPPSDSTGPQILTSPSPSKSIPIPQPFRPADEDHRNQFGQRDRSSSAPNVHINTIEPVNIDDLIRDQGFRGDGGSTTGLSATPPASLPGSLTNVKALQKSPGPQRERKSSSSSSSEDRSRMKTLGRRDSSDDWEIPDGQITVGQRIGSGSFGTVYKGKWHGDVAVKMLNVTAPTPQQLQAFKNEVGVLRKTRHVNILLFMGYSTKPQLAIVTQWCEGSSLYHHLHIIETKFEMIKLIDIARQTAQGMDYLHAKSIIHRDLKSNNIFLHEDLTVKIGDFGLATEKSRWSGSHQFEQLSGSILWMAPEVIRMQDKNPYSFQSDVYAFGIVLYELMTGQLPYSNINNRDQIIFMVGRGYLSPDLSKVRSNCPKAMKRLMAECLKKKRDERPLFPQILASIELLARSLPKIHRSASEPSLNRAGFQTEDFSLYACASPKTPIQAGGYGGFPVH

Structure (SMILES)	IC50 [1] [nM]	IC50 [2] [nM]	inhibition at 10 µM [3] [%]	inhibition at 10 µM [4] [%]	inhibition at 10 µM [5] [%]	inhibition at 10 µM [6] [%]	inhibition at 10 µM [7] [%]	inhibition at 10 µM [8] [%]	inhibition at 10 µM [9] [%]	inhibition at 10 µM [10] [%]	inhibition at 10 µM [11] [%]	inhibition at 10 µM [12] [%]	inhibition at 10 µM [13] [%]	inhibition at 10 µM [14] [%]	inhibition at 10 µM [15] [%]	inhibition at 10 µM [16] [%]	inhibition at 10 µM [17] [%]	inhibition at 10 µM [18] [%]	inhibition at 10 µM [19] [%]	inhibition at 10 µM [20] [%]	other results
COc1ccc(-c2nc3cc(-c4nnc(SCC(=O)Nc5ccc(C(=O)/C=C/c6ccccc6)cc5)o4)ccc3[nH]2)cc1 [Compound 7k, 2-{5-[2-(4-Methoxyphenyl)-1 H-benzo[d]imidazol-5-yl]-1,3,4-oxadiazol-2-ylthio}-N-{4-[(E)-3-phenylacryloyl]phenyl}acetamide]	1700 ± 200	550 ± 100	86.7	17.8	33.7	22.5	33.6	33.8	0	49.2	26.6	51.6	14.1	12.9	20.3	0	11.4	0	15.2	6.61	fold less potent than Erlotinib against EGFR [2]: approximately 7 fold; inhibition at 10 µM [21]: 0%; inhibition at 10 µM [22]: 38.1%; inhibition at 10 µM [23]: 10.3%; Caspase-9 Fold change [24]: 17 fold and 17.00 fold; Caspase-9 Conc [24]: 15.900 ng/mL; Bcl-2 Conc [25]: 0.94 ng/mL and 0.940 ng/mL; Bcl-2 Fold reduction [25]: 5.4 fold; Caspase-8 Fold change [26]: 10 fold and 9.90 fold; Caspase-8 Conc [26]: 1.680 ng/mL
COc1ccc(/C=C/C(=O)c2ccc(NC(=O)CSc3nnc(-c4ccc5[nH]c(-c6ccc(OC)cc6)nc5c4)o3)cc2)cc1 [Compound 7m, 2-{5-[2-(4-Methoxyphenyl)-1 H-benzo[d]imidazol-5-yl]-1,3,4-oxadiazol-2-ylthio}-N-{4-[(E)-3-(4-methoxyphenyl)acryloyl]phenyl}acetamide]	2200 ± 200	900 ± 100	44.1	2.1	0	9.52	7.11	7.02	4.92	22.2	17.8	40.5	6.15	0	18.9	3.7	2	0	23.1	1.44	inhibition at 10 µM [21]: 0%; inhibition at 10 µM [22]: 14.3%; inhibition at 10 µM [23]: 0%; Caspase-9 Fold change [24]: 15.00 fold; Caspase-9 Conc [24]: 13.900 ng/mL; Bcl-2 Conc [25]: 1.050 ng/mL; Bcl-2 Fold reduction [25]: 4.9 fold; Caspase-8 Fold change [26]: 7.90 fold; Caspase-8 Conc [26]: 1.350 ng/mL
